Reference: patent publication US4619932A, “Novel carbostyril derivatives, process for producing thereof and pharmaceutical composition containing the same” (Otsuka Pharmaceutical Co., Ltd., priority 1980, dated 1986)
Structures can show the parent of a compound that is named as a salt. Where two headings read alike, the source gives them in different places.

Legend:
[1] = target: retraction of ileum caused by histamine (Cavia porcellus, UniProt P31389); experiment: Antihistaminic activity test in vitro, enucleated ileum of guinea pig; set-up: species or system guinea pig (male)
Excerpt: (E) Antihistaminic activity test
As to the test method for determining antihistaminic activity of a compound in vitro, a method of using an enucleated ileum of a guinea pig is generally accepted. Antihistaminic activity of the present compounds was conduted according to said method as follows:
A male guinea pig having 300 to 500 g body weight was killed by blood letting. An ileum having length of 15 cm being enucleated from the ileocecal region was dipped into Tyrode's solution (which was prepared from 8.0 g of NaCl, 0.2 g of KCl, 0.2 g of CaCl2, 1.0 g of glucose, 1.0 g of NaHCO3, 0.065 g of NaHPO4.2H2 O and 0.2135 g of MgCl2.6H2 O make 1000 ml in total volume by adding water). Then the tissue of ileum was cut to a length of 2.5 to 3.0 cm and suspended in an organ bath filled with 30 ml of Tyrode's solution. The organ bath was kept a temperature of 36° C. and blowing a mixed gas consisting of 5% of CO2 and 95% of O2 into the bath. 10 Minutes after the blowing, 10^-6M of histamine was added to the bath to examine the sensitivity of the tissue and a reaction curve (control) with respect to the dosage of histamine was obtained. After the dosage of histamine-reaction curve (control) become constant 10^-6 g/ml of a compound to be tested was added to the bath and further histamine was added 5 minutes later to obtain dosage-reaction curve. Retraction of the isotonic was recorded on a pen-recorder through an isotonic transducer (TD-112S manufactured by Nihon Koden). Antihistaminc activity of the test compound was determined as pA2 value by "Van Rossam" method (J. M. Van Rossam: Arch. Inst. Pharmacodyn. Ther., 143, 299 (1963)) in terms of that the maximum retraction of ileum caused by histamine shown in the control curve is 100%.

male rats = conditions: rat, in vivo, po
Experimental: Each of the following compound of the general formula in the present invention was administered orally to male rats to determine the acute toxicity (LD50 mg/kg).

[2] = tested on: jumping behavior induced by Methamphetamine and L-DOPA; experiment: Activity for inhibiting jumping behavior in mouse induced by Methamphetamine and L-DOPA; assay type: in vivo, mouse (male, ddy-strain); conditions: oral, Methamphetamine 4 mg/kg i.p. and L-DOPA 400 mg/kg i.p., positive = 10 or fewer jumps, read-out: ED50 value, inhibition of jumping behavior
Experimental: (B) Activity for inhibiting jumping behavior in mouse induced by Methamphetamine and L-DOPA
Individual male mice of ddy-strain having a body weight of 17 to 25 g were used. The mice were not fed for 24 hours. One test group consisted of 6 mice. A compound to be tested was administered orally. 40Minutes after the administration 4 mg/kg of Methamphetamine d-N-α-dimethylphenthylamine was intraperitonerally administered, further 15 minutes after the administration of Methamphetamine, 400 mg/kg of L-DOPA was intraperitonerally administered. 60 Minutes after the administration of L-DOPA, (3-(3,4-dihydroxyphenyl)alanine) the mouse was placed in a glass beaker of 2 liters capacity, and the number of jumping of the mouse was recorded. The activity for inhibiting jumping behavior of the test compound was determined as positive in case of number of jumping performed by the administered mouse counted 10 or less. While, the activity for inhibiting jumping behabior of the test compound was determined as negative in case the number of jumping performed by the administered mouse recorded over 10. The effective dosage (ED50 value: mg/kg) of the test compound which gives 3 mice were positive over 6 mice of one test group was calculated. The number of jumping performed by the mouse being administered with physiological saline solution as the reference was 150 to 200 per hour. (Cf. H. Lal, F. C. Colpaert, P. Laduron: European J. Pharmacol., 30, 113-116 (1975)).

epinephrine = experiment: Activity for antagonizing epinephrine in mouse; assay type: in vivo, mouse (male, ddy strain); conditions: oral, 1 hour before epinephrine 40 mg/kg i.p., survival at 24 hours, read-out: ED50 value, dose allowing half the animals to survive
Experimental: (C) Activity for antagonizing epinephrine in mouse
Individual male mice of ddy strain having 17 to 20 g of body weight were used. The mice were abstained from eating for 24 hours. One test group consist of 10 mice. A compound to be tested was administered orally. One hour after the administration, 40 mg/kg of epinephrine was intraperitonerally administered. […] All of 10 mice administered physiological saline solution as the reference group were dead within a few minutes after the administration of epinephrine. (Cf. Loew, E. R. and Micetich, A., J. Pharmacol. Exp. Ther., 93, 434-443 (1948)).

Halothane anesthesia = Halothane anesthesia increasing activity; assay type: in vivo, mouse (male, ddy-strain); conditions: 16 mg/kg oral, 1 hour before 4% Halothane for 3 minutes; righting reflex
Experimental: Male mice of ddy-strain a having about 20 g body weight were used. One test group consists of 10 mice. An aqueous Gummi Arabicum suspension of test compound (80 mg of a compound to be tested and 1 g of Gummi Arabicum/100 ml of physiological NaCl solution) was administered orally to each mouse at the dosage of 16 mg of test compound/kg body. One hour after the administration, each mouse was placed in gas respiration chamber (13×13×24 cm) and oxygen gas containing 4% of Halothane (2-brome-2-chloro-1,1,1-trifluoroethane) was flown into the chamber at the velocity of 2/min for 3 minutes. A mouse anaesthetized was taken out from the chamber and the time between the introduction of anesthesia to waking was measured by righting reflex as the index. To mice of control group, 1% Gummi Arabicum aqueous physiological solution was orally administered at the dosage of 0.1 ml/kg body.

palpebral ptosis = experiment: Palpebral ptosis test in mouse; assay type: in vivo, mouse (male, ddy-strain); conditions: 64 mg/kg oral, 1 hour; score 0 (wide open eyes) to 8 (eyes completely closed); mean of 10 mice
Experimental: (D) Activity of palpebral ptosis test in mouse
Individual male mice of ddy-strain having 18 to 20 g of body weight were used. The mice were abstained from eating for 24 hours. One test group consists of 10 mice. […] One hour after the administration, the state of palpebral ptosis of the mouse were observed and evaluated on the basis of the following score system. The mean value was calculated from the scores of 10 mice.
Score Degree of palpebral ptosis
8 Eyes completely closed.

[3] = 10^-6 g/ml test compound, histamine, Tyrode's solution, 36° C., Van Rossam method, read-out: pA2 (converted)

retraction of ileum caused by histamine, sequence (P31389 whole entry): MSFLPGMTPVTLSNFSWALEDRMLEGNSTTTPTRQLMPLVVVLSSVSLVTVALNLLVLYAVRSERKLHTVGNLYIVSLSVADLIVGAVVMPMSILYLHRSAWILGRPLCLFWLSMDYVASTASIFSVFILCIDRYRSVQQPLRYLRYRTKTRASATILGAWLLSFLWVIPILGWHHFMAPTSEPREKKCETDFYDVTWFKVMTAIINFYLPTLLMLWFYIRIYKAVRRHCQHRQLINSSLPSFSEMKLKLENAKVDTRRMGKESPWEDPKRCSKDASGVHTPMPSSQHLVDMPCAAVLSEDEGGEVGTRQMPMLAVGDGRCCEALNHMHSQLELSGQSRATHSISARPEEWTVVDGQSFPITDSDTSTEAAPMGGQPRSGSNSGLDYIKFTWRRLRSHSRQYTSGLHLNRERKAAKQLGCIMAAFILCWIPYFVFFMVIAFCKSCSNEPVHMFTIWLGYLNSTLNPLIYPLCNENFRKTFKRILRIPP

Compound | Kb [1, 3] | Acute toxicity (LD50) (male rats) | other results
CN1C(=O)CCc2cc(C(=O)CCN3CCN(c4ccccc4)CC3)ccc21 [Compound 20, 1-Methyl-6-[1-oxo-3-(4-phenyl-1-piperazinyl)propyl]-3,4-dihydrocarbostyril.monooxalate] | 26.3 nM | 500 mg/kg | 
O=C1CCc2c(CCCN3CCN(c4ccccc4)CC3)cccc2N1 [Compound 22, 5-[3-(4-Phenyl-1-piperazinyl)propyl]-3,4-dihydrocarbostyril] | 97.7 nM | 500 mg/kg | 
O=C1CCc2cc(C(=O)CCCN3CCN(c4ccccc4Cl)CC3)ccc2N1 [Compound 3, 6-{1-Oxo-4-[4-(2-chlorophenyl)-1-piperazinyl]butyl}-3,4-dihydrocarbostyril.monohydrochloride.monohydrate] |  | 500 mg/kg | ED50 [2]: 1.05 mg/kg; ED50 (epinephrine): 6.12 mg/kg; Time (minutes) between introduction of anesthesia to waking (Halothane anesthesia): 8.0 min; Score obtained (Mean value), degree of palpebral ptosis (palpebral ptosis): 2.0
O=C1CCc2cc(C(=O)CCN3CCC(Cc4ccccc4)CC3)ccc2N1 [Compound 24] | 58.9 nM | 500 mg/kg | 
Cc1ccc(C2=CCN(CC=Cc3ccc4c(c3)CCC(=O)N4)CC2)cc1 [Compound 23, 6-{3-[4-(4-Methylphenyl)-1,2,5,6-tetrahydropyridyl]-1-propenyl}-3,4-dihydrocarbostyril] |  | 500 mg/kg | Kb [1]: 15.5 nM
Cc1cccc(N2CCN(CC=Cc3ccc4c(c3)CCC(=O)N4Cc3ccccc3)CC2)c1 [Compound 21, 1-Benzyl-6-{3-[4-(3-methylphenyl)-1-piperazinyl]-1-propenyl}-3,4-dihydrocarbostyril monooxalate] | 49 nM |  | 
